Results on 1 compound are retold here after US12122821B2, “Regulation of glucose metabolism using anti-CGRP antibodies” (H. LUNDBECK A/S, priority 2013, dated 2024).

One test concerns Normal rats. Description: Hyperinsulinemic-euglycemic clamp, whole body glucose fluxes in normal rats (Example 1). To be noted: vs vehicle. The test is classed as in vivo, rat. On the procedure: To assess the effect on whole body insulin sensitivity, a clamp procedure was performed using 0.3 U/kg/h insulin and ^3H-glucose. Rats were fasted for 6 hours before 180 minutes of perfusion. Steady state was reached after 140 minutes of infusion and the means of glucose infusion rate (GIR), whole body glucose turn over (GTO), hepatic glucose production (HGP), glycolysis, and glycogen synthesis were calculated from 140 min. to 180 min. A bolus of 14-C-2-deoxyglucose was administered 1 hour before the end of the clamp to measure tissue specific glucose utilization.
The hyperinsulinemic-euglycemic clamp was performed using ^3H-glucose as a tracer and 0.3 U/kg/h insulin infusion from 02:00 pm (T0) to 05:00 pm (T+3 h). A glucose solution was infused in parallel and the infusion rate was adjusted to reach the steady state (˜100+/−10 mg/dL). Blood glucose was measured from the tip of the tail using glucometers every 10 minutes. Blood was collected (10 μL) from the tip of the tail during the last hour (steady state) and the following parameters were assessed: Glucose infusion rate; Whole body glucose utilization rate; Hepatic glucose production rate; Whole body glycogen and glycolytic rates.
Whole body Glucose fluxes.

For the next test, the system named is HFD rats. As to the kind of experiment: 2-step hyperinsulinemic-euglycemic clamp in HFD rats (Example 2). To be noted: metformin 200 mg/kg/day, vs HFD vehicle. It is filed as in vivo, rat. As for the experimental part:
Six-week HFD fed rats were treated for 2 weeks with Ab14, and a 2-step hyperinsulinemic euglycemic clamp was performed to assess insulin sensitivity. A physiological dose of insulin was used during the first step and a pharmacological dose of insulin was used during the second step to assess the effects of […] insulin sensitivity, respectively, under these two conditions.
Body weight and food consumption were measured 3 times per week until 10 days of treatment. HOMA-IR was measured on day 10 and 15. A 2-step clamp (5 mU/kg/min and then 15 mU/kg/min insulin) was performed on day 15 or 16. Glucose Turnover (GTO) was assessed using ^3H-glucose tracer infusion during the clamp procedure.
On day 15 or 16, the 2-step hyperinsulinemic-euglycemic clamp was performed using ^3H-glucose as a tracer (except in the normal chow group), and 5 mU/kg/min insulin infusion from 02:00 pm (T0) to 04:00 pm (T+2 h), followed by 15 mU/kg/min insulin infusion from 04:00 pm to 05:30 pm (t+3.5 h). A glucose solution was infused in parallel and the infusion rate was adjusted to reach the steady state (100±10 mg/dL). Blood glucose was measured from the tip of the tail using glucometers every 10 minutes. Blood was collected (10 μL) regularly from the tip of the tail during the steady states of each step.
The following parameters were assessed: Glucose infusion rate (in all groups); Whole body glucose utilization rate (except in the normal chow group); Hepatic glucose production rate (except in the normal chow group); Whole body glycogen and glycolytic rates (except in the normal chow group).

Setting [1] is: clamp 0.3 U/kg/h insulin, 140-180 min, Ab14 100 mg/kg i.v., metformin 500 mg/kg p.o.

Each structure is given as a SMILES string. Entries after “also recorded” stand apart in the source; their conditions may differ.

As to `CN(C)C(=N)N=C(N)N` [metformin, reference compound], the “GIR evolution during clamp” value with Normal rats (Ab14 100 mg/kg i.v., metformin 500 mg/kg p.o.) is “significantly increased”. Moreover, the “increase of glucose infusion rate (GIR)” value in the test with Normal rats (clamp 0.3 U/kg/h insulin, 140-180 min, Ab14 100 mg/kg i.v. 48 h before, metformin 500 mg/kg p.o. 24 h and 4 h before) turned out to be 27%. Besides, in the test with Normal rats (setting [1]), the “increase of glycolysis rate” value came to 43% and the “increase of whole body glucose turn over (GTO)” value is given as 30%. In addition, the “GIR (plateau) during the first clamp step” value in the test with HFD rats (5 mU/kg/min insulin, Ab14 treated groups (10, 30, 100 mg/kg)) is “increasing effect upon GIR that was comparatively less in magnitude; also recorded: no effect”. Besides, in the test with HFD rats (5 mU/kg/min insulin, ns), the “increase of mean GIR, first step” value is recorded as 11%. In the test on HFD rats (15 mU/kg/min insulin), the “HGP, second step” value is given as “completely inhibited” and the “increase of mean GIR, second step” value is 27%.
